From patent US20100234372A1, “SUBSTITUTED 2-MERCAPTOQUINOLINE-3-CARBOXAMIDES AS KCNQ2/3 MODULATORS” (GRUNENTHAL GMBH, priority 2009, published 2010)

How the values were obtained:
[1] = target: T1, KCNQ2/3 channels (Homo sapiens, UniProt O43525+O43526); experiment: Fluorescence assay using a voltage-sensitive dye (fluorimetry); format: cell-based; details: for EC50: CHO-K1 cells expressing KCNQ2/3 channels; for Emax at 1 µM: 50 μM retigabine = 100%, CHO-K1 cells expressing KCNQ2/3, read-out: Fluorimetry % efficacy at 1 μM (50 μM retigabine = 100%)
T1 construct: expressed in transfected cells; host or cells: CHO-K1 cells
Protocol: […] CHO-K1 cells expressing KCNQ2/3 channels are cultivated adherently at 37° C., 5% CO2 and 95% humidity in cell culture bottles (e.g. 80 cm^2 TC flasks, Nunc) with DMEM-high glucose (Sigma Aldrich, D7777) including 10% FCS (PAN Biotech, e.g. 3302-P270521) or alternatively MEM Alpha Medium (1×, liquid, Invitrogen, #22571), 10% foetal calf serum (FCS) (Invitrogen, #10270-106, heat-inactivated) and the necessary selection antibiotics.
Before being seeded out for the measurements, the cells are washed with a 1×DPBS buffer without Ca^2+/Mg^2+ (e.g. Invitrogen, #14190-094) and detached from the bottom of the culture vessel by means of Accutase (PAA Laboratories, #L11-007) (incubation with Accutase for 15 min at 37° C.). The cell count then present is determined using a CASY™ cell counter (TCC model, Scharfe System) in order subsequently to apply 20,000 to 30,000 cells/well/100 μl of the described nutrient medium, depending on density optimisation for the individual cell line, to 96-well measuring plates of the Corning™ CeIIBIND™ type (flat clear-bottom black polystyrene microplates, #3340). Incubation is then carried out for one hour at room temperature, without gassing or adjusting the humidity, followed by incubation for 24 hours at 37° C., 5% CO2 and 95% humidity.
The voltage-sensitive fluorescent dye from the Membrane Potential Assay Kit (Red™ bulk format part R8123 for FLIPR, MDS Analytical Technologies™) is prepared by dissolving the contents of a vessel of Membrane Potential Assay Kit Red Component A in 200 ml of extracellular buffer (ES buffer, 120 mM NaCl, 1 mM KCl, 10 mM HEPES, 2 mM CaCl2, 2 mM MgCl2, 10 mM glucose; pH 7.4). After removal of the nutrient medium, the cells are washed with 200 μl of ES buffer, then covered with a layer of 100 μl of the dye solution prepared above and incubated for 45 min at room temperature with exclusion of light.
The fluorescence measurements are carried out with a BMG Labtech FLUOstar™, BMG Labtech NOVOstar™ or BMG Labtech POLARstar™ instrument (525 nm excitation, 560 nm emission, bottom-read mode). After incubation of the dye, 50 μl of the substances to be tested in the desired concentrations, or 50 μl of ES buffer for control purposes, are introduced into separate cavities of the measuring plate and incubated for 30 min at room temperature whilst being shielded from light. The fluorescence intensity of the dye is then measured for 5 min and the fluorescence value F1 of each well is thus determined at a given, constant time. 15 μl of a […] KCl solution ([…]) are then added to each well. The change in fluorescence is subsequently measured until all relevant measured values have been obtained (mainly 5-30 min). At a given time after KCl application, a fluorescence value F2 is determined, in this case at the time of the fluorescence peak.
For calculation, the fluorescence intensity F2 is compared with the fluorescence intensity F1, and the agonistic activity of the target compound on the potassium channel is determined therefrom. F2 and F1 are calculated as follows: […]
is determined by adding to the reaction batch only the buffer solution instead of the substance to be tested, determining the value F1K of the fluorescence intensity, adding the potassium ions as described above and measuring a value F2K of the fluorescence intensity. Then F2K and F1K are calculated as follows: […]
Calculations of EC50 values are carried out with the aid of Prism v4.0 software (GraphPad Software™).

[2] = tested on: Male Sprague-Dawley rats; experiment: Low-intensity tail flick in rats; format: in vivo; details: po, rat, p.o., MPE, read-out: Low-intensity tail flick rat p.o. % effect (dose [mg/kg])
From the text: The antinociceptive activity of the test substance against an acute noxic thermal stimulant was examined in the tail-flick test in rats using the method described by D′Amour and Smith (J. Pharm. Exp. Ther. 72, 74 79 (1941)). Male Sprague-Dawley rats weighing between 200 and 250 g were used (breeder: Janvier, Le Genest St. Isle, France). The animals were placed in special test compartments and the base of the tail was exposed to a focused light beam from an analgesia meter (model 2011, Rhema Labortechnik, Hofheim, Germany). 10 animals were used per group. Before administering a substance according to the invention, the tail-flick latency (time from switching on the light beam to the flick of the tail) was measured twice at an interval of five minutes and the average was defined as the control latency time. The intensity of the light beam was chosen so that the control latency time was 7 to 9 seconds.
The measurement of the tail-flick latency was then repeated 10, 20, 30 and 60 minutes after peroral administration of the substance. The antinociceptive action of the test substance was determined as the increase in the tail-flick latency time using the following formula:
where T0=control latency time before administration of the substance, T1=latency time after administration of the substance, T2=maximum exposure time to the light beam (30 seconds), MPE=maximum possible effect.
Analysis of variance (repeated measures ANOVA) was used to test for statistically significant differences between the substance and vehicle group. The significance level was set at ≦0.05.

SMILES	EC50 [1] [nM]	Emax at 1 µM [1] [%]	inhibition in vivo at 21.5 mg/kg ([2]; dose 21.5 mg/kg) [%]	inhibition in vivo at 10 mg/kg [2] [%]
CCSc1nc2cc(C(F)(F)F)ccc2cc1C(=O)NCc1cccs1 [compound 14]	291	223	9	–
CCSc1nc2cc(C(F)(F)F)ccc2c(C)c1C(=O)NCc1cccs1 [compound 30, 2-Ethylsulfanyl-4-methyl-N-(thiophen-2-yl-methyl)-7-(trifluoromethyl)-quinoline-3-carboxamide]	82	141	–	31
CCSc1nc2cc(C(F)(F)F)ccc2c(C)c1C(=O)NCCC(C)C [compound 37]	85	121	–	0
CCSc1nc2ccc(C)cc2c(C)c1C(=O)NCc1ccc(F)cc1 [compound 100]	337	45	–	–
CCSc1nc2ccc(OC)cc2c(C)c1C(=O)NCc1cccc(F)c1 [compound 101]	–	17	–	–
CCSc1nc2ccc(OC)cc2c(C)c1C(=O)NCc1ccc(F)cc1 [compound 102]	–	14	–	–
CCSc1nc2ccc(C(F)(F)F)cc2c(C)c1C(=O)NCc1cccc(F)c1 [compound 103]	784	115	–	–
CCSc1nc2ccc(C(F)(F)F)cc2c(C)c1C(=O)NCc1ccc(F)cc1 [compound 104]	–	25	–	–
CCSc1nc2cc(F)ccc2c(C)c1C(=O)NCc1cccc(F)c1 [compound 105]	248	140	–	–
CCSc1nc2cc(F)ccc2c(C)c1C(=O)NCc1ccc(F)cc1 [compound 106]	216	143	–	–
CCSc1nc2cc(C)ccc2c(C)c1C(=O)NCc1cccc(F)c1 [compound 107]	499	161	–	–
CCSc1nc2cc(C)ccc2c(C)c1C(=O)NCc1ccc(F)cc1 [compound 108]	509	149	–	–
CCSc1nc2cc(C(F)(F)F)ccc2c(C)c1C(=O)NCc1ccco1 [compound 110]	89	183	–	–
CCSc1nc2cc(C(F)(F)F)ccc2c(C)c1C(=O)NCc1ccc(C)o1 [compound 111]	86	178	–	–
CCSc1nc2cc(C(F)(F)F)ccc2c(C)c1C(=O)NCc1cccc(O)c1 [compound 113]	3990	66	–	–
CSc1nc2cc(C(F)(F)F)ccc2c(C)c1C(=O)NCc1cccc(F)c1 [compound 114]	169	175	–	–
CSc1nc2cc(C(F)(F)F)ccc2c(C)c1C(=O)NCc1ccc(F)cc1 [compound 115]	136	150	–	–
CCSc1nc2ccc(F)cc2c(C)c1C(=O)NCc1cccc(F)c1 [compound 116]	598	147	–	–
CCSc1nc2ccc(F)cc2c(C)c1C(=O)NCc1ccc(F)cc1 [compound 117]	222	87	–	–
CCSc1nc2cc(F)c(F)cc2c(C)c1C(=O)NCc1cccc(F)c1 [compound 118]	147	149	–	–
CCSc1nc2cc(C(F)(F)F)ccc2c(C)c1C(=O)NCc1ccc(O)cc1 [compound 119]	2750	72	–	–

SMILES	EC50 [1] [nM]	Emax at 1 µM [1] [%]	inhibition in vivo at 21.5 mg/kg ([2]; dose 21.5 mg/kg) [%]	inhibition in vivo at 10 mg/kg [2] [%]
CCSc1nc2c(F)cccc2c(C)c1C(=O)NCc1cccc(F)c1 [compound 120]	1210	157	–	–
CCSc1nc2c(F)cccc2c(C)c1C(=O)NCc1ccc(F)cc1 [compound 121]	334	90	–	–
CCSc1nc2cc(C(F)(F)F)ccc2c(Cl)c1C(=O)NCc1cccc(F)c1 [compound 122, 4-Chloro-2-ethylsulfanyl-N-[(3-fluorophenyl)-methyl]-7-(trifluoromethyl)-quinoline-3-carboxamide]	65	171	–	–
CCSc1nc2cccc(F)c2c(C)c1C(=O)NCc1cccc(F)c1 [compound 123]	–	8	–	–
CCSc1nc2cccc(F)c2c(C)c1C(=O)NCc1ccc(F)cc1 [compound 124]	–	8	–	–
CCSc1nc2cccc(OC)c2c(C)c1C(=O)NCc1cccc(F)c1 [compound 125]	–	14	–	–
CCSc1nc2cccc(OC)c2c(C)c1C(=O)NCc1ccc(F)cc1 [compound 126]	–	5	–	–
CCSc1nc2cccc(O)c2c(C)c1C(=O)NCc1cccc(F)c1 [compound 127]	–	18	–	–
CCSc1nc2ccc(O)cc2c(C)c1C(=O)NCc1cccc(F)c1 [compound 128]	–	39	–	–
CCSc1nc2cc(O)ccc2c(C)c1C(=O)NCc1cccc(F)c1 [compound 129]	–	12	–	–
CCSc1nc2cc(C(F)(F)F)ccc2c(OC)c1C(=O)NCc1cccc(F)c1 [compound 130, 2-Ethylsulfanyl-N-[(3-fluorophenyl)-methyl]-4-methoxy-7-(trifluoromethyl)-quinoline-3-carboxamide]	58	180	–	–
CCSc1nc2cc(C(F)(F)F)ccc2c(N(C)C)c1C(=O)NCc1cccc(F)c1 [compound 131, 4-Dimethylamino-2-ethylsulfanyl-N-[(3-fluorophenyl)-methyl]-7-(trifluoromethyl)-quinoline-3-carboxamide]	1820	104	–	–
CCSc1nc2cc(OC(F)(F)F)ccc2c(C)c1C(=O)NCc1ccc(F)cc1 [compound 132, 2-Ethylsulfanyl-N-[(4-fluorophenyl)-methyl]-4-methyl-7-(trifluoromethyloxy)-quinoline-3-carboxamide]	51	161	–	–
CCSc1nc2cc(N(C)C)ccc2c(C)c1C(=O)NCc1ccc(F)cc1 [compound 133]	–	15	–	–
CCSc1nc2cc(N3CCOCC3)ccc2c(C)c1C(=O)NCc1cccc(F)c1 [compound 134]	–	21	–	–
CCSc1nc2cc(N3CCOCC3)ccc2c(C)c1C(=O)NCc1ccc(F)cc1 [compound 135]	–	6	–	–
CCSc1nc2c(C(F)(F)F)cccc2c(C)c1C(=O)NCc1cccc(F)c1 [compound 136]	227	164	–	–
CCSc1nc2c(C(F)(F)F)cccc2c(C)c1C(=O)NCc1ccc(F)cc1 [compound 137]	225	166	–	–
CCSc1nc2c(OC)cccc2c(C)c1C(=O)NCc1cccc(F)c1 [compound 138]	2240	91	–	–
CCSc1nc2c(OC)cccc2c(C)c1C(=O)NCc1ccc(F)cc1 [compound 139]	1960	91	–	–
CCSc1nc2c(O)cccc2c(C)c1C(=O)NCc1cccc(F)c1 [compound 140]	1150	101	–	–
